# Reference: ChEMBL document CHEMBL5465560, “Selectivity Literature for EUbOPEN Chemogenomic Library” (2024)
# Assays:
# [1] = target: T1, Serine/threonine-protein kinase haspin (Homo sapiens) (UniProt Q8TF76); assay: Selectivity interaction (Kinase panel (DSF assay)) EUB0001558a GSG2
# T1 sequence (whole entry): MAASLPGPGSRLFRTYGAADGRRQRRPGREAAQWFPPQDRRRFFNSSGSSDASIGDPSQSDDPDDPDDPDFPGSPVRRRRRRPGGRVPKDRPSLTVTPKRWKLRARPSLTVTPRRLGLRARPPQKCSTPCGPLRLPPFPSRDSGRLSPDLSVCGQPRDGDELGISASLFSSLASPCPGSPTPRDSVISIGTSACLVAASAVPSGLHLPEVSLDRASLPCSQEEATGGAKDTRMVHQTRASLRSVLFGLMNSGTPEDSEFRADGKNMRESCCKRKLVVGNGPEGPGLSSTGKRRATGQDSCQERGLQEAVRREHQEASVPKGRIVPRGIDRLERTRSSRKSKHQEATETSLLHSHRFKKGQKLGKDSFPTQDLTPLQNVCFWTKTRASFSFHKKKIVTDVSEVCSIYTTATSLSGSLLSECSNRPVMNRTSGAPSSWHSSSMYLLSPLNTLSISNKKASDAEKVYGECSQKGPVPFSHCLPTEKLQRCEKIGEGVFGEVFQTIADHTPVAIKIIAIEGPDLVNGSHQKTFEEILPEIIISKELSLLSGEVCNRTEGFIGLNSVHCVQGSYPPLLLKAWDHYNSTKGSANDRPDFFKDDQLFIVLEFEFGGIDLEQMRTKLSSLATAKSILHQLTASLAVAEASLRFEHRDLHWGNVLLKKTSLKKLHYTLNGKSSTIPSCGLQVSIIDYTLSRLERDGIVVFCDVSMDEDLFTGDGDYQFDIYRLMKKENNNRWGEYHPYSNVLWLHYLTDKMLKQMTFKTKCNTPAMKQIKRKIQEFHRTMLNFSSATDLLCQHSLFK
# [2] = target: T2, Mitogen-activated protein kinase kinase kinase 2 (Homo sapiens) (UniProt Q9Y2U5); assay: Selectivity interaction (ActivX KiNativ screen (kinase selectivity in THP-1 cell lysates)) EUB0000639a MAP3K2; format: subcellular; conditions: lysate, at 5 µM
# T2 sequence (whole entry): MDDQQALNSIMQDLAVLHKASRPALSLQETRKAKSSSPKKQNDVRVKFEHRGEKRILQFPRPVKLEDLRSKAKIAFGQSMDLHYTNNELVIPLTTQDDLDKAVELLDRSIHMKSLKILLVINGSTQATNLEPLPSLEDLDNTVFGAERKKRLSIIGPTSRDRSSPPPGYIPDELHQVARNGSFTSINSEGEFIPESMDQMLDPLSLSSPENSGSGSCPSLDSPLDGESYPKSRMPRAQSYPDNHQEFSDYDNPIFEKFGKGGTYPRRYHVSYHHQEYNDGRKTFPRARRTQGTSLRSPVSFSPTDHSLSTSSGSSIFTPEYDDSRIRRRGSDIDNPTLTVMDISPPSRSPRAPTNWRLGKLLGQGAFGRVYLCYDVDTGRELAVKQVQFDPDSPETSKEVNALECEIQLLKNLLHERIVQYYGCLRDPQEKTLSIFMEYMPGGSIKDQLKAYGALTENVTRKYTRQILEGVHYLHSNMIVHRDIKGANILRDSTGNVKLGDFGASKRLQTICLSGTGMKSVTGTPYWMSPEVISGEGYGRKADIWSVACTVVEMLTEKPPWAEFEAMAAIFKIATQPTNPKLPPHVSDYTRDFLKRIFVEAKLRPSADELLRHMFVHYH
# [3] = target: T3, Gamma-aminobutyric acid receptor subunit alpha-1 (Homo sapiens) (UniProt P14867); assay: Selectivity interaction (Eurofins CEREP Diversity Profile (receptors and ion channels)) EUB0000279b GABRA1; conditions: at 10 µM
# T3 sequence (whole entry): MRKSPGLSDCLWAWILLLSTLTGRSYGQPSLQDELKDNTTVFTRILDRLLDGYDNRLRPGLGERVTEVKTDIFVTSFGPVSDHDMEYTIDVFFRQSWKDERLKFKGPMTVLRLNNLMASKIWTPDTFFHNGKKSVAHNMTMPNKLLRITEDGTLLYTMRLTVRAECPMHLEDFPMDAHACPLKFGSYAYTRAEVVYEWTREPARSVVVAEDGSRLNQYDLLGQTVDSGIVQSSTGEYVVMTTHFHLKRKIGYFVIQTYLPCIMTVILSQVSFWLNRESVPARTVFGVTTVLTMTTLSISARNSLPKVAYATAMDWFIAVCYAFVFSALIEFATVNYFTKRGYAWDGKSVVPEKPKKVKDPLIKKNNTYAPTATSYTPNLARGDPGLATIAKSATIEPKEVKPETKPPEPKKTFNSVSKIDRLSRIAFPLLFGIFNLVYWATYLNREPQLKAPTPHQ
# [4] = target: T4, Histone-arginine methyltransferase CARM1 (Homo sapiens) (UniProt Q86X55); conditions: KMS-28BM, at 3 µM
# T4 sequence (whole entry): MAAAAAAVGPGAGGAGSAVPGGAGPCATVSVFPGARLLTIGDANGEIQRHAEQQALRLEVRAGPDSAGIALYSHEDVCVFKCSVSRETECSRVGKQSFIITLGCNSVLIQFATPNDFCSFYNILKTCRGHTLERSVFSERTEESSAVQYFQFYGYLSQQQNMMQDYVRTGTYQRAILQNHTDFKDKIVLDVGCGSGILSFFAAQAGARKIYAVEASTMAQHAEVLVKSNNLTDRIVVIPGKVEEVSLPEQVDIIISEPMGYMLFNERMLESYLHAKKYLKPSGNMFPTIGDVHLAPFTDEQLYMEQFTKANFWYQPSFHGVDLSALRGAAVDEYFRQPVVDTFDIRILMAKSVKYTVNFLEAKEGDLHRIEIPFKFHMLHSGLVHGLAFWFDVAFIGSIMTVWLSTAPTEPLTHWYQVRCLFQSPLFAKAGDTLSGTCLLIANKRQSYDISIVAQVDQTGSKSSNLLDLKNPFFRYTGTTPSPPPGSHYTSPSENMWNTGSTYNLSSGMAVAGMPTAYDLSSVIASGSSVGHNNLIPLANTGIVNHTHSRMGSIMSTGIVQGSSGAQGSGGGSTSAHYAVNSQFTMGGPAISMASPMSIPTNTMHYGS
compound,measurement,setting,value
CC(C)(O)[C@H](F)CN1Cc2cc(NC(=O)c3cnn4cccnc34)c(N3CCOCC3)cc2C1=O,dTM,[1],0.8 K
CC[C@@H]1[C@H](F)C(=O)N[C@@H]1COc1nccc2cc(C(N)=O)c(OC)cc12 [ZIMLOVISERTIB],% of inhibition,[2],12.6%
CC(=O)c1cc(-c2ccccc2OCC2CC2)c2ncccn12,% of control,[3],103%
CNCCN1CCC(c2cc(CN(C)C(=O)c3cccc(Oc4ccccc4)c3)ccn2)CC1,% of growth rate,[4],-24.1%
